Earlier results, collected in US9999656B2, “Treatment of short bowel syndrome patients with colon-in-continuity” (Shire-NPS Pharmaceuticals, Inc., priority 2004, dated 2018).

What was measured:
[1] = GLP-2; approximately; cited from earlier work
[2] = system: SBS jejunostomy patients; details: cited from earlier work

Substance: glucagon-like peptide-2 [native GLP-2]
- half-life [1]: approximately seven
- effect on wet weight absorption ([2]; native GLP-2 400 μg twice daily for 35 days, p=0.040): 420 ± 480 g/day
- intestinal wet weight absorption (in words) ([2]; open-label study, pharmacologic doses, SBS jejunostomy patients (Jeppesen et al.)): significant improvement in intestinal wet weight absorption
